Like-named read-outs stand apart in the source and are kept apart here.
What was measured:
Format in all cases: cell-based
DENV-2 New Guinea = assay: Antiviral screening: NS1 protein production in DENV-2 infected Huh-7 cells; conditions: for NS1 production: DENV-2 infected Huh-7, MOI 1, 24 h, compounds at non-cytotoxic concentrations (between 40 and 100 µM), mycophenolic acid 20 µM, relative to viral control; for effect on NS1 production vs viral control: DENV-2 infected Huh-7, 24 h, non-cytotoxic concentrations (between 40 and 100 µM)
[1] = Cytotoxic effect on Huh-7 cells, cell viability assay with resazurin; conditions: human
Huh-7 cells = assay: as above; conditions: for effect on cell viability at 100 µM: highest concentration evaluated
[2] = tested on: DENV-2 subgenomic replicon in Huh-7 cells; assay: NS5 protein production in Huh-7 DENV-2 replicon cells (ELISA)
DENV-2 = assay: Viral RNA production of DENV-2 in infected Huh-7 cells (RT-qPCR); conditions: 50 µM; DENV-2 infected Huh-7; normalized using GAPDH; vs viral control
[3] = Huh-7 cells, Huh-7 cell line, resazurin, read-out: CC50
[4] = Huh-7, all evaluated concentrations

Structure (SMILES)	NS1 production (DENV-2 New Guinea)	effect on NS1 production vs viral control (DENV-2 New Guinea)	CC50 [1, 3]	effect on cell viability at the evaluated concentrations (Huh-7 cells; [4])	other results
COc1c(C)c2c(c(O)c1C/C=C(\C)CCC(=O)O)C(=O)OC2 [mycophenolic acid, Mycophenolic acid, reference compound]	around 63%	–	–	–	–
O=C(NCc1ccccc1)C1Cc2c([nH]c3ccccc23)C2c3ccccc3C(=O)N12 (stereo not drawn) [R32]	–	reduction in NS1 production	> 100 µM	did not reduce cell viability	–
CC1(C)CC(NC(=O)C2Cc3c([nH]c4ccccc34)C3c4ccccc4C(=O)N23)CC(C)(C)N1 (stereo not drawn) [M78]	~38%	reduction in NS1 production	60.8 µM	–	selectivity index (SI), CC50/IC50 ([2]; CC50 Huh-7 / IC50 NS5 production): 2.5; IC50 ([2]; Dengue virus, DENV2, Huh-7 DENV-2 replicon, dose-response curve, 24 h): 24.6 µM; reduction of NS5 protein expression ([2]; Huh-7 DENV-2 replicon, 50 µM): 70%; NS5 production ([2]; Huh-7 DENV-2 replicon, 50 µM, 24 h, compared to VC (100%)): ~30%; reduction of DENV-2 viral RNA (relative expression, 2^−ΔΔCT) (DENV-2): 1.7 times; viability ([1]; Huh-7 cells, Huh-7, at 12.5, 25, and 50 µM, read-out: cellular viability): ~100%; effect on cell viability at 100 µM (Huh-7 cells; Huh-7): loss of viability
O=C(NCCc1ccc(Cl)cc1)C1Cc2c([nH]c3ccccc23)C2c3ccccc3C(=O)N12 (stereo not drawn) [R53]	–	–	30 µM	reduced cell viability	–
O=C(Nc1ccc2c(c1)OCCO2)[C@@H]1CCCN1C(=O)[C@@H]1Cc2ccccc2CN1 [M76]	–	reduction in NS1 production	> 100 µM	–	effect on cell viability at 100 µM (Huh-7 cells; Huh-7): no effect was observed
O=C(NCCc1ccccc1F)C1Cc2c([nH]c3ccccc23)C2c3ccccc3C(=O)N12 (stereo not drawn) [MR41]	–	reduction in NS1 production	> 100 µM	no effect was evidenced	–
Cc1ccc(CNC(=O)C2Cc3c([nH]c4ccccc34)C3c4ccccc4C(=O)N23)cc1 (stereo not drawn) [MR94]	–	except for treatment with MR94	46.2 µM	–	–
O=C(NCCc1c[nH]c2ccccc12)C1Cc2c([nH]c3ccccc23)C2c3ccccc3C(=O)N12 (stereo not drawn) [MR25]	~45%	reduction in NS1 production	70.6 µM	–	–
Cc1cc(C)cc(NC(=O)C(NC(=O)N2CC3CC(C2)c2cccc(=O)n2C3)C(C)C)c1 (stereo not drawn) [R07]	–	reduction in NS1 production	–	–	CC50 ([1]; CC50): > 100 µM; effect on cell viability at the evaluated concentrations (Huh-7 cells): did not reduce cell viability
O=C(NCCc1ccccc1)C1Cc2c([nH]c3ccccc23)C2c3ccccc3C(=O)N12 (stereo not drawn) [R55]	–	reduction in NS1 production	> 100 µM	did not reduce cell viability	–

— article PMC10384440 (Viruses, 2023)
